Laboratory results as given in patent US20250282820A1, “PEPTIDE COMPLEX HAVING TRKB BINDING ACTIVITY” (PEPTIDREAM INC, priority 2022, published 2025).
*1 amine or outer side, *2 acyl side, *3 side chain or, on linkers, in order; H or OH if unused. Where a SMILES comes first, the peptide text is derived from it. Bridges are numbered along the chain shown (N, C = ends). Roman numbers before positions name the chains, in order. [ ]: non-standard residue; d: D form. ξ: configuration not given here. CO(CH2CH2O)13CH2CH2CO = O=C(CCOCCOCCOCCOCCOCCOCCOCCOCCOCCOCCOCCOCCOCCC(=O)[*:2])[*:1]; X4 = NC(=O)C(CCCCNC(=O)CCOCCC(=O)[*:1])NC(=O)CCOCCOCCOCCOCCOCCCCCOCCOCCN[*:2]; X3 = CC(C)[C@H](CC(=O)[C@H](Cc1cccnc1)N[*:1])C(=O)[*:2]; PEG8 = NCCOCCOCCOCCOCCOCCOCCOCCOCCC(=O)O; 3Pal = N[C@@H](Cc1cccnc1)C(=O)O; Thr(3ξ) = CC(O)[C@H](N)C(=O)O; ξP = O=C(O)C1CCCN1; ξC = NC(CS)C(=O)O

What was measured:
Assay type in all cases: cell-based
TrkB = TrkB (Homo sapiens, UniProt Q16620); assay: PathHunter eXpress TrkB Functional Assay (phosphorylation of TrkB); conditions: stimulation for 3 hours
Sequence of TrkB (Q16620 32-822): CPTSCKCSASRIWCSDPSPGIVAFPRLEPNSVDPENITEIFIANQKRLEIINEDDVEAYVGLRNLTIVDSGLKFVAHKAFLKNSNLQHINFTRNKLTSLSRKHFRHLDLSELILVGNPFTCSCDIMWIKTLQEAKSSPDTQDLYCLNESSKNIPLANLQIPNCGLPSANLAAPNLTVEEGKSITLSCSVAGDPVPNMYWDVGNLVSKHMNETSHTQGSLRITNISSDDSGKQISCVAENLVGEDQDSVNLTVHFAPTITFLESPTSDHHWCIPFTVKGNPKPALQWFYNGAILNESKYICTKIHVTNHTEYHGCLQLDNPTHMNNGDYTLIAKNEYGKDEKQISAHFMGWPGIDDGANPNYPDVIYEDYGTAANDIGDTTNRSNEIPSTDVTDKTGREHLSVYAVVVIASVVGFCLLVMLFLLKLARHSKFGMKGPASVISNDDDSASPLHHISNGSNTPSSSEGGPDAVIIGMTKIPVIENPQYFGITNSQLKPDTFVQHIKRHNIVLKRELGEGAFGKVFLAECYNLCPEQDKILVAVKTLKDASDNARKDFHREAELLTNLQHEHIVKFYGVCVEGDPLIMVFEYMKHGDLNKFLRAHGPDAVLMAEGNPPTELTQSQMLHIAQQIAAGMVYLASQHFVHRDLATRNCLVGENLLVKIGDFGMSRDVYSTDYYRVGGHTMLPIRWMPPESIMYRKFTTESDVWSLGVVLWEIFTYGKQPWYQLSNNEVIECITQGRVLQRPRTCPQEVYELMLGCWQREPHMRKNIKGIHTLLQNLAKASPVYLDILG
Method: To evaluate the TrkB activation potency of the TrkB agonist peptide of the present invention, the phosphorylation of TrkB was examined. The PathHunter (registered trademark) eXpress TrkB Functional Assay kit (DiscoverX; cells, 96-well plate, medium, and detection reagents included) was used and the evaluation was performed according to the attached protocols. The frozen cells were thawed and suspended in the medium, then seeded into a 96-well plate at 10,000 cells per well and incubated for 48 hours. Thereafter, Recombinant Human BDNF Protein (R&D Systems) or a peptide was added, and after stimulation for 3 hours, a detection reagent was added. The reaction was performed while protected from the light at room temperature for 60 minutes, and luminescent signals were measured using a SpectraMax Paradigm Multi-Mode Microplate Reader (Molecular Devices). The obtained signals were analyzed with GraphPad Prism, and the activity (%) was calculated with the maximum value of the signals induced by BDNF as 100% and a signal with no stimulation as 0%.
The BDNF was evaluated at 8 points (0.006 nM to 100 nM) from 100 nM using 4-fold dilutions. The peptide was evaluated in the measurement ranges A to C shown below. • Measurement range A=6 points from 100 nM using 5-fold dilutions (0.032 nM to 100 nM) • Measurement range B=8 points from 100 nM using 4-fold dilutions (0.006104 nM to 100 nM) • Measurement range C=4 points from 10 nM using 10-fold dilutions (0.01 nM to 10 nM)

[1] = molecular target: T1, TrkB (CellSensor TrkB-NFAT-bla CHO-K1 Cell) (Homo sapiens, UniProt Q16620); assay: NFAT transcriptional reporter assay for TrkB agonist activity; conditions: class = peptide concentration giving 50% or more activity; BDNF maximum signal = 100%, no stimulation = 0%; 5 hours culture
T1 construct: host or cells: CHO-K1 (CellSensor TrkB-NFAT-bla CHO-K1)
T1 sequence (Q16620 32-822): as above
Method: To evaluate the TrkB activation potency of the TrkB agonist peptide of the present invention, transcriptional activity was examined using transcriptional reporters. The CellSensor (registered trademark) TrkB-NFAT-bla CHO-K1 Cell (Invitrogen) used in the AlphaLISA assay was cultured in the medium above. After the cells were detached using Accutase (Innovative Cell Technologies), the cells were suspended in an assay medium, wherein Blasticidin and Zeocin were removed, then seeded into a 96-well plate for adherent cultures at 12,500 cells per well and cultured overnight. Then, BDNF or a peptide was added thereto, and the cells were further cultured in a CO2 incubator for 5 hours. After the 96-well plate was removed from the incubator and brought to room temperature, a detection reagent (LiveBLAzer (registered trademark)-FRET B/G (CCF4-AM) Substrate Mixture) was added while protected from the light, and the 96-well plate was incubated while protected from the light in a moisture box with a lid for 2 hours. For signal detection, a EnVision 2104 Multilabel Plate Reader (PerkinElmer) was used, and the ratio of fluorescence emission value (460 nm/535 nm) was calculated. The obtained numerical values were analyzed with GraphPad Prism, and the activity (%) was calculated with the maximum value of the signals induced by BDNF as 100% and a signal with no stimulation as 0%. The peptide with 50% or more activity when 1 nM of the peptide was added was evaluated as A, the peptide with 50% or more activity when 10 nM of the peptide was added was evaluated as B, and the peptide with 50% or more activity when 100 nM of the peptide was added was evaluated as C. Those that were not evaluated were listed as not tested.
The BDNF was evaluated at 7 points (0.0024 nM to 10 nM) from 10 nM using 4-fold dilutions.
For dimer structures Nos. 1 to 3, the peptide was evaluated at 1 nM, 10 nM, and 100 nM, and, for other dimer structure numbers, the peptide was evaluated at 0.1 nM, 1 nM, and 10 nM. When creating the concentration dependence curve, the BDNF and the peptides were evaluated at […] (0.006 nM to 100 nM) […] using 4-fold dilutions.

[2] = molecular target: T1, TrkB (CellSensor TrkB-NFAT-bla CHO-K1 Cell); assay: pERK1/2 AlphaLISA assay (phosphorylation of ERK) for TrkB agonist activity; conditions: class = peptide concentration giving 50% or more activity; BDNF maximum signal = 100%, no stimulation = 0%; 15 minutes of stimulation
Method: To evaluate the TrkB activation potency of the TrkB agonist peptide of the present invention, the phosphorylation of ERK was examined. CellSensor (registered trademark) TrkB-NFAT-bla CHO-K1 Cell (Invitrogen) was cultured in DMEM, high glucose, GlutaMAX (registered trademark) Supplement, and pyruvate (Thermo), comprising 10% FBS (Thermo) and 1× Non-essential amino acids (Thermo), 25 mM HEPES (Thermo), 50 ug/mL Gentamicin, 5 ug/mL Blasticidin (Thermo), and 200 ug/mL Zeocin (Thermo). After the cells were detached using Accutase (Innovative Cell Technologies), they were seeded into a 96-well plate for adherent cultures at 12,500 cells per well and cultured overnight. The next day, for starvation, the culture solution above was replaced with a nutrient starvation medium comprising 0.1% BSA (Sigma), wherein FBS, Blasticidin, and Zeocin were removed from the culture medium, and culturing was performed for 4 hours. Thereafter, Recombinant Human BDNF Protein (R&D Systems) or a peptide was added, and after 15 minutes of stimulation, cells were lysed in the Lysis Buffer provided with the AlphaLISA SureFire Ultra p-Erk1/2 (Thr202/Tyr204) assay kit (PerkinElmer). The assay was performed according to the kit protocol. The signals were detected using a SpectraMax Paradigm Multi-Mode Microplate Reader (Molecular Devices). The obtained signals were analyzed with GraphPad Prism, and the activity (%) was calculated with the maximum value of the signals induced by BDNF as 100% and a signal with no stimulation as 0%. The peptide with 50% or more activity when 1 nM of the peptide was added was evaluated as A, and the peptide with 50% or more activity when 10 nM of the peptide was added was evaluated as B.
The BDNF was evaluated at 8 points (0.0006 nM to 10 nM) from 10 nM using 4-fold dilutions.
For dimer structures Nos. 1 to 3, the peptide was evaluated at 1 nM, 10 nM, and 100 nM, and, for other dimer structure numbers, the peptide was evaluated at 0.1 nM, 1 nM, and 10 nM. When creating the concentration dependence curve, the BDNF and the peptides were evaluated at 8 points (0.006 nM to 100 nM) from 100 nM using 4-fold dilutions.

SMILES	Emax (TrkB; maximum signal induced by BDNF = 100%)	EC50 (TrkB)	NFAT Assay Results [1]	pERK (aLISA) Assay Results [2]
CC(C)[C@@H]1NC(=O)[C@H](Cc2cccnc2)NC(=O)[C@H](CCC(=O)O)NC(=O)[C@H](CO)NC(=O)[C@H](Cc2ccc(O)cc2)NC(=O)[C@H]([C@@H](C)O)NC(=O)C2CCCN2C(=O)[C@H](Cc2c[nH]c3ccccc23)NC(=O)[C@H](Cc2cccnc2)NC(=O)[C@H](Cc2ccc(O)cc2)NC(=O)[C@@H]2CCCN2C(=O)[C@H](CO)NC(=O)[C@H](Cc2ccccc2)NC(=O)CSC[C@@H](C(=O)NCC(=O)N[C@@H](CCCCNC(=O)CCOCCOCCOCCOCCOCCOCCOCCOCCOCCOCCOCCOCCOCCC(=O)NCCCC[C@H](NC(=O)CNC(=O)[C@@H]2CSCC(=O)N[C@@H](Cc3ccccc3)C(=O)N[C@@H](CO)C(=O)N3CCC[C@H]3C(=O)N[C@@H](Cc3ccc(O)cc3)C(=O)N[C@@H](Cc3cccnc3)C(=O)N[C@@H](Cc3c[nH]c4ccccc34)C(=O)N3CCC[C@H]3C(=O)N[C@@H]([C@@H](C)O)C(=O)N[C@@H](Cc3ccc(O)cc3)C(=O)N[C@@H](CO)C(=O)N[C@@H](CCC(=O)O)C(=O)N[C@@H](Cc3cccnc3)C(=O)N[C@@H](C(C)C)C(=O)N[C@@H](CCC(=O)O)C(=O)N2)C(N)=O)C(N)=O)NC(=O)[C@H](CCC(=O)O)NC1=O (some centres unmarked) [Dimer Structure No. 48] (I: {CH2CO}-FSPY[3Pal]WPTYSE[3Pal]VECGK-NH2 / II: {CH2CO}-FSPY[3Pal]W[ξP]TYSE[3Pal]VECGK-NH2; linker I:17-II:17 via CO(CH2CH2O)13CH2CH2CO; thioether I:N-I:15, II:N-II:15)	89%	0.8 to 4 nM	B (the peptide with 50% or more activity when 10 nM of the peptide was added was evaluated as B)	B (the peptide with 50% or more activity when 10 nM of the peptide was added was evaluated as B)
CC(C)C[C@@H]1NC(=O)[C@H](CO)NC(=O)[C@H](Cc2ccc(O)cc2)NC(=O)[C@H]([C@@H](C)O)NC(=O)[C@@H]2CCCN2C(=O)[C@H](Cc2c[nH]c3ccccc23)NC(=O)[C@H](Cc2cccnc2)NC(=O)[C@H](Cc2ccc(O)cc2)NC(=O)[C@@H]2CCCN2C(=O)[C@H](CC(C)C)NC(=O)[C@H](Cc2ccccc2)NC(=O)CSC[C@@H](C(=O)NCC(=O)NCCOCCOCCOCCOCCOCCOCCOCCOCCC(=O)NCCCC[C@H](NC(=O)CCOCCOCCOCCOCCOCCOCCOCCOCCNC(=O)CNC(=O)[C@@H]2CSCC(=O)N[C@@H](Cc3ccccc3)C(=O)N[C@@H](CC(C)C)C(=O)N3CCC[C@H]3C(=O)N[C@@H](Cc3ccc(O)cc3)C(=O)N[C@@H](Cc3cccnc3)C(=O)N[C@@H](Cc3c[nH]c4ccccc34)C(=O)N3CCC[C@H]3C(=O)N[C@@H]([C@@H](C)O)C(=O)N[C@@H](Cc3ccc(O)cc3)C(=O)N[C@@H](CO)C(=O)N[C@@H](CC(C)C)C(=O)N[C@@H](Cc3cccnc3)C(=O)N[C@@H](C(C)C)C(=O)N[C@@H](Cc3c[nH]c4ccccc34)C(=O)N2)C(N)=O)NC(=O)[C@H](Cc2c[nH]c3ccccc23)NC(=O)[C@H](C(C)C)NC(=O)[C@H](Cc2cccnc2)NC1=O [Dimer Structure No. 2] (I: {CH2CO}-FLPY[3Pal]WPTYSL[3Pal]VWCG[PEG8]K-NH2 / II: {CH2CO}-FLPY[3Pal]WPTYSL[3Pal]VWCG[PEG8]; amide I:18-II:C; thioether I:N-I:15, II:N-II:15)			C (the peptide with 50% or more activity when 100 nM of the peptide was added was evaluated as C)	B (the peptide with 50% or more activity when 10 nM of the peptide was added was evaluated as B)
CC(=O)NCCCC[C@@H]1NC(=O)[C@H](CO)NC(=O)[C@H](Cc2ccc(O)cc2)NC(=O)[C@H]([C@@H](C)O)NC(=O)[C@@H]2CCCN2C(=O)[C@H](Cc2c[nH]c3ccccc23)NC(=O)[C@H](Cc2cccnc2)NC(=O)[C@H](Cc2ccc(O)cc2)NC(=O)[C@@H]2CCCN2C(=O)[C@H](CC(C)C)NC(=O)[C@H](Cc2ccccc2)NC(=O)CSCC(C(=O)NCC(=O)NCCOCCOCCOCCOCCOCCOCCOCCOCCC(=O)N[C@@H](CCCCNC(=O)CCOCCC(=O)NCCCCC(NC(=O)CCOCCOCCOCCOCCOCCCCCOCCOCCNC(=O)CNC(=O)C2CSCC(=O)N[C@@H](Cc3ccccc3)C(=O)N[C@@H](CC(C)C)C(=O)N3CCC[C@H]3C(=O)N[C@@H](Cc3ccc(O)cc3)C(=O)N[C@@H](Cc3cccnc3)C(=O)N[C@@H](Cc3c[nH]c4ccccc34)C(=O)N3CCC[C@H]3C(=O)N[C@@H](C(C)O)C(=O)N[C@@H](Cc3ccc(O)cc3)C(=O)N[C@@H](CO)C(=O)N[C@@H](CCCCNC(C)=O)C(=O)N[C@@H](Cc3cccnc3)C(=O)N[C@@H](C(C)C)C(=O)N[C@@H](CCC(=O)O)C(=O)N2)C(N)=O)C(N)=O)NC(=O)[C@H](CCC(=O)O)NC(=O)[C@H](C(C)C)CC(=O)[C@H](Cc2cccnc2)NC1=O (some centres unmarked) [Dimer Structure No. 40] (I: {CH2CO}-FLPY[3Pal]WPTYSK(Ac)[X3]E[ξC]G[PEG8]K-NH2 / II: {CH2CO}-FLPY[3Pal]WP[Thr(3ξ)]YSK(Ac)[3Pal]VE[ξC]G; linker I:17-II:C via X4; thioether I:N-I:14, II:N-II:15)			B (the peptide with 50% or more activity when 10 nM of the peptide was added was evaluated as B)	B (the peptide with 50% or more activity when 10 nM of the peptide was added was evaluated as B)
